Measurements published in ChEMBL document CHEMBL5214936, “Synthesis and evaluation of glycosylated quercetin to enhance neuroprotective effects on cerebral ischemia-reperfusion” (Bioorg Med Chem, 2022).
The source made the active and inactive calls. No cut-off for these calls is given here.

What was measured:
PC-12 [1] = assay: Neuroprotective activity in rat PC12 cells assessed as reduction in H2O2-induced ROS generation at 20 to 100 uM preincubated for 2 hrs followed by H2O2 stimulation and measured after 2 hrs by DCFH-DA staining based fluorescence microscopic analysis; type: functional, cell-based; conditions: dose 20-100 µM
Rattus norvegicus [2] = assay: Neuroprotective activity against middle cerebral artery occlusion induced cerebral ischemia reperfusion rat model assessed decrease in morphological changes in brain at 10 mg/kg, ip preincubated for 0.5 hrs followed by reperfusion and measured after 24 hrs by hematoxylin and eosin staining based microscopy; type: functional, organism-based
Rattus norvegicus [3] = assay: Neuroprotective activity against middle cerebral artery occlusion induced cerebral ischemia reperfusion rat model assessed decrease in neuronal loss in brain at 10 mg/kg, ip preincubated for 0.5 hrs followed by reperfusion and measured after 24 hrs by hematoxylin and eosin staining based microscopy; type: functional, organism-based
Rattus norvegicus [4] = assay: Neuroprotective activity against middle cerebral artery occlusion induced cerebral ischemia reperfusion rat model assessed as decrease in brain SOD level at 10 mg/kg, ip preincubated for 0.5 hrs followed by reperfusion and measured after 24 hrs; type: functional, organism-based
[5] = Stability of compound in phosphate buffer assessed as parent compound remaining after 48 hrs by HPLC analysis; type: physicochemical; conditions: read-out: Stability
[6] = n-Octanol-water partition coefficient, logP of the compound at 1 mg and measured after 2 hrs by HPLC analysis; type: physicochemical
[7] = Cytotoxicity against mouse BEND3 cells assessed as inhibition of cell viability at 2.5 to 50 uM incubated for 24 hrs by MTT assay; type: toxicity, cell-based; conditions: dose 2.5-50 µM, read-out: Activity
Rattus norvegicus [8] = assay: Neuroprotective activity against middle cerebral artery occlusion induced cerebral ischemia reperfusion rat model assessed as decrease in brain MDA level at 10 mg/kg, ip preincubated for 0.5 hrs followed by reperfusion and measured after 24 hrs; type: functional, organism-based
Rattus norvegicus [9] = assay: Neuroprotective activity against middle cerebral artery occlusion induced cerebral ischemia reperfusion rat model assessed as increase in brain GSH level at 10 mg/kg, ip preincubated for 0.5 hrs followed by reperfusion and measured after 24 hrs; type: functional, organism-based
PC-12 [10] = assay: Antioxidant activity in rat PC12 cells assessed as reduction in H2O2-induced ROS level at 20 to 100 uM preincubated for 2 hrs followed by H2O2 stimulation and measured after 2 hrs by DCFH-DA staining based fow cytometry; type: functional; design: scale not given: the % may be the effect or the level left; conditions: dose 20-100 µM
PC-12 [11] = assay: Neuroprotective activity against H2O2-induced cytotoxicity in rat PC12 cells assessed as increase in cell viability at 2.5 to 100 uM preincubated for 2 hrs followed by H2O2 stimulation and measured after 2 hrs by MTT assay; type: functional, cell-based; conditions: dose 2.5-100 µM
Rattus norvegicus [12] = assay: Neuroprotective activity against middle cerebral artery occlusion induced cerebral ischemia reperfusion rat model assessed infarct volume volume at 10 mg/kg, ip preincubated for 0.5 hrs followed by reperfusion and measured after 24 hrs by TTC staining based assay relative to control; type: functional, organism-based
PC-12 [13] = assay: Cytotoxicity against rat PC-12 cells assessed as inhibition of cell viability at 2.5 to 50 uM incubated for 24 hrs by MTT assay; type: toxicity, cell-based; conditions: pc-12, 24 h, dose 2.5-50 µM
PC-12 [14] = assay: Cytotoxicity against rat PC-12 cells assessed as inhibition of cell viability at 20 to 50 uM incubated for 24 hrs by MTT assay; type: toxicity, cell-based; conditions: pc-12, 24 h, dose 20-50 µM
[15] = Cytotoxicity against mouse BEND3 cells assessed as inhibition of cell viability at 20 to 50 uM incubated for 24 hrs by MTT assay; type: toxicity, cell-based; conditions: bend3, 24 h, dose 20-50 µM

Row | SMILES | Activity (PC-12 [1]) | Activity (Rattus norvegicus [2]) | Activity (Rattus norvegicus [3]) | Activity (Rattus norvegicus [4]) | remaining at 48 h [5] [%] | logP at 2 h [6] | inhibition at 24 h, up to 50 µM [7] [%] | Activity (Rattus norvegicus [8]) | Activity (Rattus norvegicus [9]) | Activity (PC-12 [10]) [%] | Activity (PC-12 [11]) | Activity (Rattus norvegicus [12]) | Activity (PC-12 [13]) [%] | Activity (PC-12 [14]) | Activity [15]
1 | O=c1c(O)c(-c2ccc(O)c(O)c2)oc2cc(OCc3cn(C[C@H]4O[C@@H](O)[C@H](O)[C@@H](O)[C@@H]4O)nn3)cc(O)c12 | Active | Active | Active | Active | 73.2 | -0.23 | > 80 | Active | Active | 15.2 | Active | Active | > 80 | – | –
2 | O=c1c(O)c(-c2ccc(O)c(O)c2)oc2cc(O)cc(O)c12 [QUERCETIN] | Active | Active | Active | Active | 11.2 | 1.38 | – | Active | Active | 21.56 | Active | Active | – | Toxic | Toxic
3 | O=c1c(O)c(-c2ccc(O)c(OCc3cn(C[C@H]4O[C@@H](O)[C@H](O)[C@@H](O)[C@@H]4O)nn3)c2)oc2cc(OCc3cn(C[C@H]4O[C@@H](O)[C@H](O)[C@@H](O)[C@@H]4O)nn3)cc(O)c12 | Active | Active | Active | Active | 81.5 | -1.12 | > 80 | Active | Active | 5.06 | Active | Active | > 80 | – | –
